Experimental data published in PubChem BioAssay AID330 (DTP/NCI, 2004).
Values joined by “and” are separate entries in the source; they are usually repeats but may differ in a detail not shown here. Identical values can stand only once. Toxic doses and inconclusive results are not listed.

Test system: P388 leukemia ip, CD2F1 mice, survival T/C
Test: NCI In Vivo Anticancer Drug Screen. Data for tumor model P388 Leukemia (intraperitoneal) in CD2F1 (CDF1) mice
Conditions: endpoint: median survival time, higher = longer survival
In short: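 Mice carrying the transplanted tumor received test compound or vehicle. Survival was recorded in each group, and the value is the treated-group measurement divided by that of the vehicle-treated control group.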

[1] = dose: 50.0 mg/kg/injection, schedule: Q01DX009 (ip), vehicle: saline with Tween-80
[2] = dose: 100.0 mg/kg/injection, schedule: Q01DX009 (ip), vehicle: saline with Tween-80
[3] = dose: 200.0 mg/kg/injection, schedule: Q01DX009 (ip), vehicle: saline with Tween-80
[4] = dose: 60.0 mg/kg/injection, schedule: Q01DX005 (ip), vehicle: saline with Tween-80
[5] = dose: 120.0 mg/kg/injection, schedule: Q01DX005 (ip), vehicle: saline with Tween-80
[6] = dose: 240.0 mg/kg/injection, schedule: Q01DX005 (ip), vehicle: saline with Tween-80
[7] = dose: 200.0 mg/kg/injection, schedule: Q04DX003 (ip), vehicle: saline with Tween-80
[8] = dose: 400.0 mg/kg/injection, schedule: Q04DX003 (ip), vehicle: saline with Tween-80

SMILES: C=CCCC(C)CC (stereo not drawn)
- T/C [1]: 105 % of control
- T/C [2]: 103 % of control
- T/C [3]: 100 % of control

SMILES: CCCCc1ccc(-c2nn[nH]n2)nc1
- T/C (dose: 25.0 mg/kg/injection, schedule: Q04DX002 (ip), vehicle: saline with Tween-80): 101 % of control
- T/C (dose: 50.0 mg/kg/injection, schedule: Q04DX002 (ip), vehicle: saline with Tween-80): 100 % of control and 102 % of control
- T/C (dose: 100.0 mg/kg/injection, schedule: Q04DX002 (ip), vehicle: saline with Tween-80): 100 % of control and 102 % of control and 104 % of control
- T/C (dose: 200.0 mg/kg/injection, schedule: Q04DX002 (ip), vehicle: saline with Tween-80): 105 % of control and 123 % of control and 95 % of control

SMILES: C=C(C)C1CC2=C(C(=O)OC)C=C(O2)C(C(=C)C)C2OC(=O)/C(=C\C1O)C2O (stereo not drawn)
- T/C (dose: 4.0 mg/kg/injection, schedule: Q01DX005 (ip), vehicle: saline + alcohol): 103 % of control
- T/C (dose: 8.0 mg/kg/injection, schedule: Q01DX005 (ip), vehicle: saline + alcohol): 103 % of control
- T/C (dose: 16.0 mg/kg/injection, schedule: Q01DX005 (ip), vehicle: saline + alcohol): 99 % of control
- T/C (dose: 32.0 mg/kg/injection, schedule: Q01DX005 (ip), vehicle: saline + alcohol): 99 % of control
- T/C (dose: 64.0 mg/kg/injection, schedule: Q01DX005 (ip), vehicle: saline + alcohol): 101 % of control

SMILES: CCON1C(=O)C(C)c2ccccc21 (stereo not drawn)
- T/C [4]: 98 % of control
- T/C [5]: 102 % of control
- T/C [6]: 102 % of control

SMILES: COc1ccc(/C=C/C(=O)c2ccc3c(c2)OCO3)cc1OC
- T/C (dose: 12.5 mg/kg/injection, schedule: Q01DX009 (ip), vehicle: saline with Tween-80): 98 % of control
- T/C (dose: 25.0 mg/kg/injection, schedule: Q01DX009 (ip), vehicle: saline with Tween-80): 98 % of control and 100 % of control
- T/C [1]: 99 % of control and 101 % of control
- T/C [2]: 100 % of control and 94 % of control
- T/C [3]: 103 % of control and 93 % of control
- T/C [7]: 109 % of control
- T/C (dose: 300.0 mg/kg/injection, schedule: Q01DX009 (ip), vehicle: saline with Tween-80): 93 % of control
- T/C (dose: 400.0 mg/kg/injection, schedule: Q01DX009 (ip), vehicle: saline with Tween-80): 100 % of control
- T/C [8]: 109 % of control

SMILES: O=[n+]1c2ccccc2n([O-])c2cc(Cl)ccc21
- T/C (dose: 25.0 mg/kg/injection, schedule: Q04DX003 (ip), vehicle: saline with Tween-80): 112 % of control
- T/C [1]: 150 % of control
- T/C (dose: 50.0 mg/kg/injection, schedule: Q04DX003 (ip), vehicle: saline with Tween-80): 112 % of control
- T/C [2]: 154 % of control and 174 % of control
- T/C (dose: 100.0 mg/kg/injection, schedule: Q04DX003 (ip), vehicle: saline with Tween-80): 107 % of control
- T/C [7]: 114 % of control
- T/C [8]: 114 % of control

SMILES: COc1ccc(-c2cnc(=O)[nH]c2N)cc1
- T/C (dose: 60.0 mg/kg/injection, schedule: Q01DX005 (ip), vehicle: suspension in saline): 99 % of control
- T/C (dose: 120.0 mg/kg/injection, schedule: Q01DX005 (ip), vehicle: suspension in saline): 97 % of control
- T/C (dose: 240.0 mg/kg/injection, schedule: Q01DX005 (ip), vehicle: suspension in saline): 105 % of control

SMILES: O=[N+]([O-])c1ccccc1S(=O)NCc1c(Cl)cccc1Cl (stereo not drawn)
- T/C [4]: 100 % of control
- T/C [5]: 90 % of control
- T/C [6]: 100 % of control

SMILES: CC(NC(=O)C(N)Cc1ccc(O)cc1)C(=O)NCC(=O)N(C)C(Cc1ccccc1)C(=O)NC(CO)CCS(C)=O (stereo not drawn)
- T/C (dose: 50.0 mg/kg/injection, schedule: Q01DX009 (ip), vehicle: saline): 115 % of control
- T/C (dose: 100.0 mg/kg/injection, schedule: Q01DX009 (ip), vehicle: saline): 95 % of control
- T/C (dose: 200.0 mg/kg/injection, schedule: Q01DX009 (ip), vehicle: saline): 105 % of control

SMILES: Cc1ccccc1-c1nc2c3ccccc3c3ccccc3c2[nH]1
- T/C (dose: 50.0 mg/kg/injection, schedule: Q01DX005 (ip), vehicle: Klucel (hydroxypropylcellulose) (HPC)): 103 % of control
- T/C (dose: 100.0 mg/kg/injection, schedule: Q01DX005 (ip), vehicle: Klucel (hydroxypropylcellulose) (HPC)): 96 % of control
- T/C (dose: 200.0 mg/kg/injection, schedule: Q01DX005 (ip), vehicle: Klucel (hydroxypropylcellulose) (HPC)): 100 % of control
